In ChEMBL document CHEMBL1909536, “7-Oxopyrrolopyridine-derived DPP4 inhibitors-mitigation of CYP and hERG liabilities via introduction of polar functionalities in the active site” (Bioorg Med Chem Lett, 2011):
Values joined by “and” are separate entries in the source; they are usually repeats but may differ in a detail not shown here. Identical values can stand only once.

Key:
[1] = target: Dipeptidyl peptidase 8 (Homo sapiens, UniProt Q6V1X1); assay: Inhibition of DPP8
[2] = target: Dipeptidyl peptidase 4 (Homo sapiens, UniProt P27487); assay: Inhibition of DPP4
[3] = target: T1, Cytochrome P450 3A4 (Homo sapiens, UniProt P08684); assay: Inhibition of CYP3A4 in presence of the substrate 7-bezyloxy-4-trifluoromethyl coumarin; type: ADME
[4] = target: Dipeptidyl peptidase 9 (Homo sapiens, UniProt Q86TI2); assay: Inhibition of DPP9
[5] = target: T1, Cytochrome P450 3A4; assay: Inhibition of CYP3A4 up to 40 uM; type: ADME
[6] = target: hERG (KCNH2) (Homo sapiens, UniProt Q12809); assay: (§1) Inhibition of human ERG at 10 uM by patch clamp assay; details: INH
[7] = target: T2, Voltage-gated inwardly rectifying potassium channel KCNH2 (Homo sapiens, UniProt Q12809); assay: Inhibition of human ERG by flux assay
[8] = target: Cytochrome P450 2C19 (Homo sapiens, UniProt P33261); assay: Inhibition of CYP2C19; type: ADME
[9] = target: T3, Nuclear receptor subfamily 1 group I member 2 (Homo sapiens, UniProt O75469); assay: Inhibition of PXR
T3 sequence (O75469 whole entry): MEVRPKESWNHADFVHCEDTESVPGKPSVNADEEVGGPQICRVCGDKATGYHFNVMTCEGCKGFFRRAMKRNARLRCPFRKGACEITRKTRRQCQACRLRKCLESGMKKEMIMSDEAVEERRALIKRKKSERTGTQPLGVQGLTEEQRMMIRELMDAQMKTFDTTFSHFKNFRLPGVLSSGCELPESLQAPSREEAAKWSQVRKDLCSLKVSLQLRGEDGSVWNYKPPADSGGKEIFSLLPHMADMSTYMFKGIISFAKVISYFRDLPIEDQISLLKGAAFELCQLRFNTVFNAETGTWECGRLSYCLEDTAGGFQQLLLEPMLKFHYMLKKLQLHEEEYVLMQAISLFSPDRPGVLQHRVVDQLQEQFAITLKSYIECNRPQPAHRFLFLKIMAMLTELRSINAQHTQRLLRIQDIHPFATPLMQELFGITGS

[10] = target: T1, Cytochrome P450 3A4; assay: Inhibition of CYP3A4 in presence of the substrate 7-bezyloxy resorufin; type: ADME
[11] = target: T2, Voltage-gated inwardly rectifying potassium channel KCNH2; assay: as §1; details: 10 µM
[12] = target: T1, Cytochrome P450 3A4; assay: Inhibition of CYP3A4; type: ADME
[13] = target: T2, Voltage-gated inwardly rectifying potassium channel KCNH2
[14] = Cmax in rat at 10 umol/kg; type: ADME, organism-based; design: dose 10 umol/kg; details: in vivo
[15] = Half life in rat; type: ADME, organism-based; details: in vivo
[16] = Oral availability in rat; type: ADME, organism-based; details: in vivo
[17] = Tmax in rat at 10 umol/kg; type: ADME, organism-based; details: in vivo

Sequence of Dipeptidyl peptidase 4 (P27487 whole entry): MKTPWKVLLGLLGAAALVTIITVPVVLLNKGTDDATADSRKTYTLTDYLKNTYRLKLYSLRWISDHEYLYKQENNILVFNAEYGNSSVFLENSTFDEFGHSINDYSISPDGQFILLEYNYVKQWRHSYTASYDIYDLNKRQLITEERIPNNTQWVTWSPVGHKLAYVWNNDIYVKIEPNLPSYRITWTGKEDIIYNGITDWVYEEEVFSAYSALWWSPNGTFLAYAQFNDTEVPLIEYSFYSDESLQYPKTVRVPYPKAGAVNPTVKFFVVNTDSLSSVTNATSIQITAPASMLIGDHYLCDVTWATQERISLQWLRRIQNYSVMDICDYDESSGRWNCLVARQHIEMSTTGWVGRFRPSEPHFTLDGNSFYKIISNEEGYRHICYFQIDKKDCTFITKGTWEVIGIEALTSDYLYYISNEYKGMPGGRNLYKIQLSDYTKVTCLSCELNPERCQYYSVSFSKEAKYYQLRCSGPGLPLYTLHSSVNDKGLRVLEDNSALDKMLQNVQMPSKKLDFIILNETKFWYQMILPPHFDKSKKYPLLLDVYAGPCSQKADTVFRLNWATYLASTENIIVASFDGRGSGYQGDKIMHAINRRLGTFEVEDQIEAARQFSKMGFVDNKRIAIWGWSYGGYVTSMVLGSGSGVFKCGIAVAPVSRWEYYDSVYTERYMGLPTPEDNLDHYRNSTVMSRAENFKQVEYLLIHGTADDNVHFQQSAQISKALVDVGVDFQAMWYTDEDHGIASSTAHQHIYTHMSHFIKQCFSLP
T1 sequence (P08684 whole entry): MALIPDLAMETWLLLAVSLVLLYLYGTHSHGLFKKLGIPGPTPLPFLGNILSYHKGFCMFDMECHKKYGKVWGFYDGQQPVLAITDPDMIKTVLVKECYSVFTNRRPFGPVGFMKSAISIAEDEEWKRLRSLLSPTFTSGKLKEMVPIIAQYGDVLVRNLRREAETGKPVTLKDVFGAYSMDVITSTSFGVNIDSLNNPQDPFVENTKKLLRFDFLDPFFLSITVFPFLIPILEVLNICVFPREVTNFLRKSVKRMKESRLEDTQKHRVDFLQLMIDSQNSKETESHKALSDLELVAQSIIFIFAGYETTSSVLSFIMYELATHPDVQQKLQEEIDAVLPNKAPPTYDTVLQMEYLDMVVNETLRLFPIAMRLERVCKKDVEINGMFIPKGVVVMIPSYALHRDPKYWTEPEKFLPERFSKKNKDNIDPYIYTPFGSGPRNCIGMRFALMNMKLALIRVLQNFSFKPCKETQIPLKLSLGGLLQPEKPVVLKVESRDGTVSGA
Sequence of Dipeptidyl peptidase 8 (Q6V1X1 whole entry): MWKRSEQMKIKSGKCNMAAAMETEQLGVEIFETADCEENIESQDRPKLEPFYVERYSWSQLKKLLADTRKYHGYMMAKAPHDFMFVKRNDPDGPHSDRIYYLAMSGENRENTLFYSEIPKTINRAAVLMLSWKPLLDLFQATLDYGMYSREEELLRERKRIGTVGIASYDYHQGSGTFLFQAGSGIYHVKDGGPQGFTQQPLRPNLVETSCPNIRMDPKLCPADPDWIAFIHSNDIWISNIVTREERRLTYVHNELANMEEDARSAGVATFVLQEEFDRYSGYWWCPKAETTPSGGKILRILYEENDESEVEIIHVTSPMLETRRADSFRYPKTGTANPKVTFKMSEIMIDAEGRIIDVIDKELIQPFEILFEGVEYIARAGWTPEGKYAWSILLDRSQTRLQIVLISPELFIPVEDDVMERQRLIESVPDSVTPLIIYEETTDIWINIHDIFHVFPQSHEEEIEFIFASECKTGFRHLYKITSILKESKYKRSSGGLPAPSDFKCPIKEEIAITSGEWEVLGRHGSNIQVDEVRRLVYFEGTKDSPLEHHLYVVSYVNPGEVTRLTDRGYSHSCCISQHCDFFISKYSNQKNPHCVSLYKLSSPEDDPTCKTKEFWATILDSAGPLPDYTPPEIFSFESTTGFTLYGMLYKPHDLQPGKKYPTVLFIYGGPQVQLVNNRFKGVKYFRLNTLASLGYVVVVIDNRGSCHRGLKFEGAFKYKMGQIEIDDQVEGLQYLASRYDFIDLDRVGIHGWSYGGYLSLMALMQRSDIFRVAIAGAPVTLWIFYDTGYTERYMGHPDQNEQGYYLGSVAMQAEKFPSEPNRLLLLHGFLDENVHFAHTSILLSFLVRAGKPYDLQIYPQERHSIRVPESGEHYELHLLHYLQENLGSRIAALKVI
Sequence of Dipeptidyl peptidase 9 (Q86TI2 whole entry): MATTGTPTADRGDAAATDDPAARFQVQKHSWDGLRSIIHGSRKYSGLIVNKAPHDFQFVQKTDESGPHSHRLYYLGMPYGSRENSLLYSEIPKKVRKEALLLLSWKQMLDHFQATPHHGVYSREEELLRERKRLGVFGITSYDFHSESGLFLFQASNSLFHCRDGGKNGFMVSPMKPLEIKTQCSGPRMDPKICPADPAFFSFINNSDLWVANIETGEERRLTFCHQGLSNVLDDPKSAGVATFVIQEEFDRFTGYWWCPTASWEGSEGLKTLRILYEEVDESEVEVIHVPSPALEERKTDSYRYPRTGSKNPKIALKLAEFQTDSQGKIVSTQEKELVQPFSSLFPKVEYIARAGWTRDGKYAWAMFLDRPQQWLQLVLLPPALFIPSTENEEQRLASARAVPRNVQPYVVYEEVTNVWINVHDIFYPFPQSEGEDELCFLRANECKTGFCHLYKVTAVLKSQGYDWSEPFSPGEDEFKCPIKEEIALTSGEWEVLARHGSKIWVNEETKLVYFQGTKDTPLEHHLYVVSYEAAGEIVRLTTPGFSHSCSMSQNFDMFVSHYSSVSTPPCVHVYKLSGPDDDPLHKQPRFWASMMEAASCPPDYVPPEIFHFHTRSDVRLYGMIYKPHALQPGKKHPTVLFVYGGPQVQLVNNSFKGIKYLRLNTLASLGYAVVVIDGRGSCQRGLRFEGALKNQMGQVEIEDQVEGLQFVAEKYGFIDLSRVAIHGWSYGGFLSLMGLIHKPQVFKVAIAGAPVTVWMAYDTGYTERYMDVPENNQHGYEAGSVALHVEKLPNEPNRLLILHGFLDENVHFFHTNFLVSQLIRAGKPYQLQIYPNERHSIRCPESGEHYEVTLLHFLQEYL
Sequence of Cytochrome P450 2C19 (P33261 whole entry): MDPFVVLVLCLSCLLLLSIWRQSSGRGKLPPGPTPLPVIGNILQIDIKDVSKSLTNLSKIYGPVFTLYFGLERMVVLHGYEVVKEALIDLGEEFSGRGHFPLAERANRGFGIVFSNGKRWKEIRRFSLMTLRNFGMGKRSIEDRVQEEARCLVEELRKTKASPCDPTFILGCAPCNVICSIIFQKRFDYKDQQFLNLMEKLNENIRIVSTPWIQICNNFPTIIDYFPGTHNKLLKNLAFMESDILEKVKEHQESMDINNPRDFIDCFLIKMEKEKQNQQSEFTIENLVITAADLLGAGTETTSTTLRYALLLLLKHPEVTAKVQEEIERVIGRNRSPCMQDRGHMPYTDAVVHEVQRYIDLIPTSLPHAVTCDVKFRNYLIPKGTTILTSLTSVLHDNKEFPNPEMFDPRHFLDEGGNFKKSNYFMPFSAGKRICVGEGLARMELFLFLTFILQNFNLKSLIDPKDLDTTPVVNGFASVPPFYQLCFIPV
Sequence of hERG (KCNH2) (Q12809 whole entry): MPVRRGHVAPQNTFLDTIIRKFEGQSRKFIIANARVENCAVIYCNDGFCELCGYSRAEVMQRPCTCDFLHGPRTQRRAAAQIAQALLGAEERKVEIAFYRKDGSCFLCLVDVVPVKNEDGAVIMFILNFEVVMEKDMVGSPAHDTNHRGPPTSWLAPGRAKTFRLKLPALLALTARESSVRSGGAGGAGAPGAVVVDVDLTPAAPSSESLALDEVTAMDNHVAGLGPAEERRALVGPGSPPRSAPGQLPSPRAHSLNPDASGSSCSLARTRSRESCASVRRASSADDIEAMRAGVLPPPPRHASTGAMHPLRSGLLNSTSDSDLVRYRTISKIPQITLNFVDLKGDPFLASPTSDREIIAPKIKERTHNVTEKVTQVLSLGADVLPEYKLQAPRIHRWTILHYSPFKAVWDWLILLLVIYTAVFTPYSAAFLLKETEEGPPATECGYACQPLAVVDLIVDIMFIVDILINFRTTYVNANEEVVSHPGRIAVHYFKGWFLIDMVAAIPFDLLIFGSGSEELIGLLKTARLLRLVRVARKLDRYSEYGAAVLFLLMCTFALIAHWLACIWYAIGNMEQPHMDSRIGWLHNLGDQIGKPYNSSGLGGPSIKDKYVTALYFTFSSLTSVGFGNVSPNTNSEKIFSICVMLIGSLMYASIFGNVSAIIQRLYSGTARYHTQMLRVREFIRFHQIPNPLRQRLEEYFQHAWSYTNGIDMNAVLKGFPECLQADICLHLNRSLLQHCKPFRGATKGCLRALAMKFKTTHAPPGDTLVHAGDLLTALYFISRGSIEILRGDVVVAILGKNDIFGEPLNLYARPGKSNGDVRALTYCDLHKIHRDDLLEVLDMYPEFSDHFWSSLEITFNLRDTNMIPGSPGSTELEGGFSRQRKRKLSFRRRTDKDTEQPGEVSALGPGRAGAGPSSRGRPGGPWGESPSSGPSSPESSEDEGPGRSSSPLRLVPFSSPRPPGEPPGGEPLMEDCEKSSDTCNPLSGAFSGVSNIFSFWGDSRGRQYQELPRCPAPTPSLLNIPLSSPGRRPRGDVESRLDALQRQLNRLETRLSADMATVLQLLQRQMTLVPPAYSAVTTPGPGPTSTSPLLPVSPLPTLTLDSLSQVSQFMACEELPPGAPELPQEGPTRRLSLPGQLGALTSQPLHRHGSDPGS

SMILES: Cc1nc2c(c(-c3ccc(Cl)cc3Cl)c1CN)CN(C)C2=O (single isomer, unassigned; atropisomer)
- Ki [1]: > 30000 nM
- Ki [2]: 29 nM
- IC50 [3]: > 40000 nM

SMILES: Cc1nc2c(c(-c3ccc(Cl)cc3Cl)c1CN)CN(CC(=O)N1CCN(C)CC1)C2=O (atropisomer, axis not shown)
- Ki [4]: > 10000 nM
- Ki [2]: 0.67 nM
- IC50 [5]: > 17000 nM

SMILES: Cc1nc2c(c(-c3ccc(Cl)cc3Cl)c1CN)CN(CC(=O)N1CCOCC1)C2=O (single isomer, unassigned; atropisomer)
- IC50 [5]: > 17000 nM

SMILES: Cc1nc2c(c(-c3ccc(Cl)cc3Cl)c1CN)CN(c1ccc(Cl)cc1)C2=O (single isomer, unassigned; atropisomer)
- inhibition at 10 µM [6]: 82%
- IC50 [3]: 390 nM

SMILES: NCc1c(-c2ccc(Cl)cc2Cl)cc(-c2ccccc2)nc1N
- IC50 [2]: 920 nM

SMILES: Cc1nc2c(c(-c3ccc(Cl)cc3Cl)c1CN)CN(CC(=O)N1CCN(S(C)(=O)=O)CC1)C2=O (single isomer, unassigned; atropisomer)
- IC50 [5]: > 17000 nM

SMILES: Cc1ccc(N2Cc3c(nc(C)c(CN)c3-c3ccc(Cl)cc3Cl)C2=O)cc1 (single isomer, unassigned; atropisomer)
- inhibition at 10 µM [6]: 84%
- IC50 [3]: 270 nM

SMILES: Cc1nc2c(c(-c3ccc(Cl)cc3Cl)c1CN)CN(c1ccc(C#N)cc1)C2=O (single isomer, unassigned; atropisomer)
- inhibition at 10 µM [6]: 97%
- IC50 [3]: 670 nM

SMILES: Cc1nc2c(c(-c3ccc(Cl)cc3Cl)c1CN)CN(CC(=O)N(C)C)C2=O (single isomer, unassigned; atropisomer)
- IC50 [5]: > 17000 nM

SMILES: Cc1nc2c(c(-c3ccc(Cl)cc3Cl)c1CN)CN(c1ccc(F)cc1)C2=O (single isomer, unassigned; atropisomer)
- inhibition at 10 µM [6]: 92%
- IC50 [3]: 1400 nM

SMILES: Cc1nc2c(c(-c3ccc(Cl)cc3Cl)c1CN)CN(CC(N)=O)C2=O (single isomer, unassigned; atropisomer)
- IC50 [5]: > 17000 nM

SMILES: Cc1nc2cn(Cc3ccccc3)cc2c(-c2ccc(Cl)cc2Cl)c1CN
- IC50 [7]: 14000 nM
- IC50 [8]: 950 nM
- EC20 [9]: 1900 nM
- EC60 [9]: > 5600 nM
- IC50 [3]: 1100 nM
- IC50 [10]: 730 nM

SMILES: COc1ccccc1N1Cc2c(nc(C)c(CN)c2-c2ccc(Cl)cc2Cl)C1=O (atropisomer R)
- INH [11]: 67% and 68%
- inhibition at 10 µM [6]: 63%
- IC50 [3]: 1500 nM and 1300 nM and 2200 nM

SMILES: Cc1nc2c(c(-c3ccc(Cl)cc3Cl)c1CN)CN(CC(=O)O)C2=O (single isomer, unassigned; atropisomer)
- IC50 [3]: > 40000 nM

SMILES: Cc1nc2c(c(-c3ccc(Cl)cc3Cl)c1CN)CN(CCO)C2=O (single isomer, unassigned; atropisomer)
- Ki [1]: > 30000 nM
- Ki [4]: > 30000 nM
- Ki [2]: 9 nM
- IC50 [3]: > 40000 nM

SMILES: Cc1nc2c(c(-c3ccc(Cl)cc3Cl)c1CN)CNC2=O (single isomer, unassigned; atropisomer)
- Ki [1]: > 30000 nM
- inhibition at 10 µM [6]: 68%
- Ki [4]: > 30000 nM
- IC50 [3]: > 40000 nM
- inhibition (INH) [12]: Not Active

SMILES: Cc1nc2c(c(-c3ccc(Cl)cc3Cl)c1CN)CN(CC(=O)NCc1cccnc1)C2=O
- IC50 [13]: 80000 nM
- IC50 [5]: 7000 nM

SMILES: CCN(CC)C(=O)CN1Cc2c(nc(C)c(CN)c2-c2ccc(Cl)cc2Cl)C1=O
- IC50 [5]: > 17000 nM

SMILES: COCCN1Cc2c(nc(C)c(CN)c2-c2ccc(Cl)cc2Cl)C1=O (single isomer, unassigned; atropisomer)
- Ki [4]: > 30000 nM
- IC50 [3]: 22000 nM

SMILES: Cc1nc2c(c(-c3ccc(Cl)cc3Cl)c1CN)CN(Cc1ccccc1)C2=O (single isomer, unassigned; atropisomer)
- IC50 [8]: 15000 nM
- EC20 [9]: 470 nM
- EC60 [9]: 1400 nM
- IC50 [3]: 2800 nM
- Cmax [14]: 500 nM
- IC50 [10]: 1400 nM

SMILES: Cc1nc2c(c(-c3ccc(Cl)cc3Cl)c1CN)CN(CC(=O)Nc1ccnn1C)C2=O
- IC50 [5]: > 17000 nM

SMILES: Cc1nc2c(c(-c3ccc(Cl)cc3Cl)c1CN)CN(c1ccccc1)C2=O (single isomer, unassigned; atropisomer)
- half-life [15]: 4.4 h
- inhibition at 10 µM [6]: 69%
- IC50 [3]: 1200 nM
- bioavailability [16]: 78%

SMILES: Cc1nc2c(c(-c3ccc(Cl)cc3Cl)c1CN)CN(CC(=O)N1CCCC1)C2=O (single isomer, unassigned; atropisomer)
- IC50 [5]: > 17000 nM

SMILES: CNC(=O)CN1Cc2c(nc(C)c(CN)c2-c2ccc(Cl)cc2Cl)C1=O (single isomer, unassigned; atropisomer)
- EC20 [9]: > 50000 nM
- EC60 [9]: > 50000 nM
- Tmax [17]: 0.417 h
- Cmax [14]: 32 nM
- IC50 [5]: > 17000 nM

SMILES: Cc1nc2c(c(-c3ccc(Cl)cc3Cl)c1CN)CN(CC(=O)N1CCC(C(N)=O)CC1)C2=O (single isomer, unassigned; atropisomer)
- IC50 [5]: > 17000 nM

SMILES: COc1ccc(N2Cc3c(nc(C)c(CN)c3-c3ccc(Cl)cc3Cl)C2=O)cc1 (single isomer, unassigned; atropisomer)
- inhibition at 10 µM [6]: 67%
- IC50 [3]: 2500 nM

SMILES: COC(=O)CN1Cc2c(nc(C)c(CN)c2-c2ccc(Cl)cc2Cl)C1=O (single isomer, unassigned; atropisomer)
- IC50 [3]: 17000 nM

SMILES: CC(=O)N1CCN(C(=O)CN2Cc3c(nc(C)c(CN)c3-c3ccc(Cl)cc3Cl)C2=O)CC1
- IC50 [5]: > 17000 nM

SMILES: Cc1nc2c(c(-c3ccc(Cl)cc3Cl)c1CN)CN(Cc1ccccc1)C2
- Ki [1]: > 30000 nM
- inhibition at 10 µM [6]: 67%
- Ki [4]: > 30000 nM
- IC50 [8]: 340 nM
- EC20 [9]: 1100 nM
- EC60 [9]: 3300 nM
- IC50 [3]: 770 nM
- Cmax [14]: 76 nM
- IC50 [10]: 340 nM

SMILES: COc1cc2c(cc1OC)-c1nc(N)c(CN)c(-c3ccc(Cl)cc3Cl)c1C2
- IC50 [2]: 7 nM
